Assay results reported in patent US8071611B2, “Spirocyclic heterocyclic derivatives and methods of their use” (Adolor Corporation, priority 2003, dated 2011).
Structures can show the parent of a compound that is named as a salt. Where two headings read alike, the source gives them in different places.

What was measured:
[1] = molecular target: T1, cloned human μ opioid receptor (Homo sapiens, UniProt P35372); test: Receptor binding: inhibition of [3H]diprenorphine binding to cloned human μ opioid receptor; settings: for % Inhibition at 10 μM (μ): [3H]diprenorphine binding, cloned human μ opioid receptor; for inhibition at 10 µM: read-out: % Inhibition at 10 μM (μ)
T1 construct: expressed in transfected cells; host or cells: CHO cells (membranes)
T1 sequence (P35372 whole entry): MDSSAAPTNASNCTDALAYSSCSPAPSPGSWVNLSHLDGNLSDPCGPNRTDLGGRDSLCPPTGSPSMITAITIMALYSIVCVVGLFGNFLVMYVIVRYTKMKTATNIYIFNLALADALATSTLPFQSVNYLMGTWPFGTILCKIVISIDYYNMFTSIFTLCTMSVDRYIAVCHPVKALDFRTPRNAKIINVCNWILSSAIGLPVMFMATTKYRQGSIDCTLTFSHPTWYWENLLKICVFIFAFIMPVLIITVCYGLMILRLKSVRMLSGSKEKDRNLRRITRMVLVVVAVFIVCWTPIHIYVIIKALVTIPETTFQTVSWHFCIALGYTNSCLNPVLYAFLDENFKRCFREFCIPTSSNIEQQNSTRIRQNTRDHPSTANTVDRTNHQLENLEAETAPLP
Method: (§1) IC50 values were obtained by nonlinear analysis of the data using GraphPad Prism version 3.00 for Windows (GraphPad Software, San Diego). Ki values were obtained by Cheng-Prusoff corrections of IC50 values.
(§2) After dilution in buffer A and homogenization as before, membrane proteins (10-80 μg) in 250 μL were added to mixtures containing test compound and [^3H]diprenorphine (0.5 to 1.0 nM, 40,000 to 50,000 dpm) in 250 μL of buffer A in 96-well deep-well polystyrene titer plates (Beckman). After incubation at room temperature for one hour, the samples were filtered through GF/B filters that had been presoaked in a solution of 0.5% (w/v) polyethylenimine and 0.1% (w/v) bovine serum albumin in water. The filters were rinsed 4 times with 1 mL of cold 50 mM Tris HCl, pH 7.8 and radioactivity remaining on the filters determined by scintillation spectroscopy. Nonspecific binding was determined by the minimum values of the titration curves and was confirmed by separate assay wells containing 10 μM naloxone.
(§3) To determine the equilibrium dissociation constant for the inhibitors (Ki), radioligand bound (cpm) in the presence of various concentrations of test compounds was measured. The concentration to give half-maximal inhibition (EC50) of radioligand binding was determined from a best nonlinear regression fit to the following equation,
(§4) The nonlinear regression fit was performed using the program Prism® (GraphPad Software, San Diego, Calif.). The Ki values were then determined from the EC50 values by the following equation,
(§5) [formula] where [ligand] is the concentration of radioligand and Kd is the equilibrium dissociation constant for the radioligand.
as §1
(§6) [formula] where [ligand] is the concentration of radioligand and Kd is the equilibrium dissociation constant for the radioligand. Receptor-Mediated [^35S]GTP[…]S Binding

[2] = system: forced swim behaviour in rats; test: Forced swim assay; type: in vivo, Male Sprague-Dawley rats; settings: percent change ±SEM relative to vehicle-treated rats
Excerpt: Male Sprague-Dawley rats (approximately 200 g) are placed in a tank of room temperature water for a fifteen min practice swim. Every five sec during the first five min of the practice swim, the rats are rated as immobile (floating with motion needed to keep head above the water), swimming (movement across the swim), or climbing (actively trying to climb out of the tank of water, upward directed movements of the forepaws). The percentage of time the rats spent in each of these responses is calculated.
Approximately 24 h after the practice swim, the rats are treated with vehicle or test compound and placed in the tank for a 5 min swim. As was the case with the practice swim, the rats are rated as immobile, swimming, or climbing during the test swim and the percentage of time spent in each of these responses is calculated. The data is analyzed by one-way ANOVA with post-hoc analysis to compare the behavioral response after vehicle treatment to the behavioral response after drug treatment for each of the three behavioral responses. The level of significance is set at p<0.05.

[3] = molecular target: T2, cloned human κ opioid receptor (Homo sapiens, UniProt P41145); test: Receptor binding: inhibition of [3H]diprenorphine binding to cloned human κ opioid receptor; settings: for inhibition at 10 µM: read-out: % Inhibition at 10 μM (κ); for % Inhibition at 10 μM (κ): [3H]diprenorphine binding
T2 construct: expressed in transfected cells; host or cells: CHO cells (membranes)
T2 sequence (P41145 whole entry): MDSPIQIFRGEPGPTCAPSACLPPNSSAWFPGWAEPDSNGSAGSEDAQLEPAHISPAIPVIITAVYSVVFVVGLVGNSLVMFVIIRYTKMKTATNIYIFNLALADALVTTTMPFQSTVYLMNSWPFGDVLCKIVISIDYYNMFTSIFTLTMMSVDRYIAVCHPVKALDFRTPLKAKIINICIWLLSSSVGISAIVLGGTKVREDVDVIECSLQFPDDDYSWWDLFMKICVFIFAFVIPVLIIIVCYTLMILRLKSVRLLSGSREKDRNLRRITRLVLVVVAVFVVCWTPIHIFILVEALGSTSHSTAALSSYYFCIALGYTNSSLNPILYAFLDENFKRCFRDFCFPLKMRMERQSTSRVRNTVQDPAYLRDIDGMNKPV
Method: as §1, §2, §3, §4, §5, §1, §6

[4] = system: castor oil-induced diarrhea in mice; test: Castor oil-induced diarrhea; type: in vivo; settings: Mus musculus, sc, read-out: ED50 (incidence of castor oil-induced diarrhea)
Method: Mice were fasted overnight with water ad libitum. Mice were weighed, dosed orally with 0.6 mL of castor oil and placed in individual cubicles (11 cm×10 cm) lined with a pre-weighed sheet of absorbent paper. Thirty min after receiving castor oil, mice were injected s.c with tested compound. Seventy-five min after dosing with castor oil, the mice and absorbent paper were reweighed and the number of mice with diarrhea (defined as wet, unformed stool) was determined.
Percent inhibition by tested compounds in castor oil-induced diarrhea assay was determined by the following formula: […]

[5] = system: acetic acid-induced writhing in mice; test: Acetic acid-induced writhing; type: in vivo, Male ICR mice; settings: 30 mg/kg (s.c.)
Method: Male ICR mice weighing 20-25 g are injected s.c. with either vehicle or test compound 15 min before they are injected intraperitoneally with 0.6% acetic acid. […] treatment with acetic acid, the number of writhes is counted for 10 minutes. Dose response curves are expressed as the percent inhibition of acetic acid induced writhing, when compared to the mean number of writhes observed in the vehicle-treated mice. The mean percent inhibition (% I) of acetic acid-induced writhing for drug-treated mice is calculated according to the following formula: […]
The mean individual response is the mean number of writhes in mice treated with test compound. The mean vehicle response is the mean number of writhes in mice treated with vehicle.
Male ICR mice weighing 20-25 g are injected s.c. with either vehicle or test compound 15 minutes before they are injected intraperitoneally with 0.6% acetic acid. At 5 minutes after treatment with acetic acid, the number of writhes is counted for 10 minutes. Dose response curves are expressed as the percent inhibition of acetic acid induced writhing, when compared to the mean number of writhes observed in the vehicle-treated mice. The mean percent inhibition (% I) of acetic acid-induced writhing for drug-treated mice is calculated according to the following formula:
[formula] […]

[6] = system: FCA-induced hyperalgesia in rats; test: Freunds Complete Adjuvant (FCA)-induced hyperalgesia, paw pressure thresholds; type: in vivo
Method: Rats were injected intraplantar with FCA and 24 h later treated with tested compounds administered orally. Paw Pressure Thresholds (PPT) was assessed 30, 60, 120, and 240 minutes after drug treatment.

[7] = molecular target: T3, cloned human δ opioid receptor (Homo sapiens, UniProt P41143); test: Receptor binding: inhibition of [3H]diprenorphine binding to cloned human δ opioid receptor
T3 construct: expressed in transfected cells; host or cells: CHO cells (membranes)
T3 sequence (P41143 whole entry): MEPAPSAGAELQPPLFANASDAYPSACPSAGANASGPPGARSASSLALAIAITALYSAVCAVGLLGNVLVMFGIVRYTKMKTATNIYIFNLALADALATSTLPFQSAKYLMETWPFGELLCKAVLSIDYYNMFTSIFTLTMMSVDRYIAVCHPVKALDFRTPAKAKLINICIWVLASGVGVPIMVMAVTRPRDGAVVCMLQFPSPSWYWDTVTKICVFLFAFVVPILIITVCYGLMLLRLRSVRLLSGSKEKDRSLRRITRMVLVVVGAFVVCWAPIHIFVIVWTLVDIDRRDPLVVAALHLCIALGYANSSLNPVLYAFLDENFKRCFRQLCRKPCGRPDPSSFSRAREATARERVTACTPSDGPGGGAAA
Method: as §1, §2, §3, §4, §5, §1, §6

[8] = molecular target: T3, cloned human δ opioid receptor; test: Receptor-mediated [35S]GTPγS binding, membranes containing cloned human δ opioid receptors; type: biochemical; settings: agonist stimulation of [35S]GTPγS binding
Method: (§7) Assays are carried out in 96-well FlashPlates® (Perkin Elmer Life Sciences, Inc, Boston, Mass.). Membranes prepared from CHO cells expressing the appropriate receptor (50-100 μg of protein) are added to assay mixtures containing agonist with or without antagonists, 100 μM [^35S]GTPγS (approx. 100,000 dpm), 3.0 μM GDP, 75 mM NaCl, 15 mM MgCl2, 1.0 mM ethylene glycol-bis(β-aminoethyl ether)-N,N,N′,N′-tetracetic acid, 1.1 mM dithiothreitol, 10 μg/mL leupeptin, 10 μg/mL pepstatin A, 200 μg/mL bacitracin, and 0.5 μg/mL aprotinin in 50 mM Tris-HCl buffer, pH 7.8. After incubation at room temperature for one hour, the plates are sealed, centrifuged at 800×g in a swinging bucket rotor for 5 min and bound radioactivity determined with a TopCount microplate scintillation counter (Packard Instrument Co., Meriden, Conn.).
as §7, with “pM [^35S]GTP[…]S” for “μM [^35S]GTPγS”

[9] = [3H]diprenorphine displacement, cloned human δ opioid receptor, read-out: Ki(δ)

Structure (SMILES)	inhibition at 10 µM [3] [%]	Ki [7] [µM]	EC50 [8] [µM]	inhibition at 10 µM [1] [%]	also measured
CCN(CC)C(=O)c1ccc(C2=CC3(CCNCC3)Oc3ccccc32)cc1 [Example 1A]					Ki [1]: 0.98 µM; IMMOBILITY (% Decrease) ([2]; 3 mg/kg p.o.): 17 ± 10%; SWIMMING (% Increase) ([2]; 3 mg/kg p.o.): 37 ± 17%; IMMOBILITY (% Decrease) ([2]; 30 mg/kg p.o.): 43 ± 13 %; SWIMMING (% Increase) ([2]; 30 mg/kg p.o.): 137 ± 35 %; Ki [3]: > 1 µM
CCN(CC)C(=O)c1ccc(C2=CC3(CCNCC3)Oc3ccccc32)cc1 [Example Z1, 4-[(4-N,N-diethylaminocarbonyl)phenyl]-spiro[2H,1-benzopyran-2,4′-piperidine]hydrochloride]	32				ED50 [4]: 8.7 mg/kg; inhibition of acetic acid-induced writhing [5]: 69%; ED50 ([6]; Rattus norvegicus, po): 2.5 mg/kg; increase of Paw Pressure Thresholds (PPT) in the inflamed paw ([6]; inflamed paw, 1-2 h after oral administration): 170-180%
CCN(CC)C(=O)c1ccc(C2=CC3(CCNCC3)Oc3ccc(F)cc32)cc1 [Example Z2, 4-[(4-N,N-diethylaminocarbonyl)phenyl]-6-fluoro-spiro[2H,1-benzopyran-2,4′-piperidine]hydrochloride]	17	0.0026	0.07		Ki [1]: 4.5 µM
CCN(CC)C(=O)c1ccc(C2=CC3(CCNCC3)Oc3ccc(O)cc32)cc1.Cl [Example Z3, 4-[(4-N,N-diethylaminocarbonyl)phenyl]-6-hydroxyspiro[2H,1-benzopyran-2,4′-piperidine]hydrochloride]			0.0014		% Inhibition at 10 μM (μ) [1]: 50%; Ki [7, 9]: 0.00036 µM; Ki ([3]; [3H]diprenorphine displacement, cloned human κ opioid receptor, read-out: Ki(κ)): 0.79 µM
CCN(CC)C(=O)c1ccc(C2CC3(CCNCC3)Oc3ccccc32)cc1.Cl (centres unmarked) [Example Z4, 4-[(4-N,N-diethylaminocarbonyl)phenyl]-3,4-dihydrospiro[2H,1-benzopyran-2,4′-piperidine]hydrochloride]					% Inhibition at 10 μM (μ) [1]: 34%; % Inhibition at 10 μM (κ) ([3]; cloned human κ opioid receptor): 19%
CCN(CC)C(=O)c1ccc(C2=CC3(CCN(C)CC3)Oc3ccccc32)cc1 [Example Z5, 4-[(4-N,N-diethylaminocarbonyl)phenyl]-N-methyl-spiro[2H,1-benzopyran-2,4′-piperidine]hydrochloride]	23	0.0058	0.14	17	
CCCN(CC1CC1)C(=O)c1ccc(C2=CC3(CCNCC3)Oc3ccccc32)cc1 [Example Z7, 4-[(4-N-propyl-N-cyclopropylmethylaminocarbonyl)phenyl]-spiro[2H,1-benzopyran-2,4′-piperidine]hydrochloride]	51	0.0017	0.029		Ki [1]: 2.5 µM
O=C(O)C1CCN(C(=O)c2ccc(C3=CC4(CCNCC4)Oc4ccccc43)cc2)CC1 [Example Z9, 4-[4-(4-carboxypiperidineaminocarbonyl)phenyl]-spiro[2H,1-benzopyran-2,4′-piperidine]hydrochloride]	24	0.015	0.16	17	
C1=C(c2ccc(-c3nn[nH]n3)cc2)c2ccccc2OC12CCNCC2.O=C(O)C(F)(F)F [Example Z10, 4-[4-(2H-tetrazolyl)phenyl]-spiro[2H,1-benzopyran-2,4′-piperidine]trifluoroacetic acid salt]			0.022		% Inhibition at 10 μM (μ) [1]: 29%; Ki [7, 9]: 0.0027 µM; % Inhibition at 10 μM (κ) ([3]; cloned human κ opioid receptor): 1.3%
O=C(O)CCCn1nnc(-c2ccc(C3=CC4(CCNCC4)Oc4ccccc43)cc2)n1 [Example Z11, 4-[4-(4-carboxypropyl-tetrazol-2-yl)phenyl]-spiro[2H,1-benzopyran-2,4′-piperidine]]	-3.3	0.008	0.14	3.7	
C1=C(c2cccnc2)c2ccccc2OC12CCNCC2 [Example Z12, 4-(3-pyridyl)-spiro[2H,1-benzopyran-2,4′-piperidine]hydrochloride]	44	0.054		36	
CS(=O)(=O)c1ccc(C2=CC3(CCNCC3)Oc3ccccc32)cc1 [Example Z13, 4-[4-(methanesulfonyl)-phenyl]-spiro[2H,1-benzopyran-2,4′-piperidine]hydrochloride]	17	0.028		41	
CCN(CC)C(=O)c1ccc(C2=CC3(CC4CCC(C3)N4)Oc3ccccc32)cc1 (centres unmarked) [Example Z14, 4-[(4-N,N-diethylaminocarbonyl)phenyl]spiro[2H,1-benzopyran-2,4′-nortropine]hydrochloride]	8	0.026		24	
